Results published in patent US10189842B2 (Agency for Science, Technology and Research, priority 2013, dated 2019).

What follows are compounds tested on HEK293-STF3A cells (assay: STF3A assay (luciferase reporter)). Settings: Homo sapiens, 24 h, 1 day of treatment.
Assay type: cell-based, Human
Procedure, shortened: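 HEK293 cells carrying the STF reporter and expressing Wnt3A, seeded 2×10^4 per well overnight, then treated 1 day with compound at final 50 μM to 1.5 nM. Luciferase activity read by luminescence after Steady-Glo reagent, 10 min at room temperature.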
For Cc1cc2n(n1)CCCN2C(=O)CCC(=O)Nc1oncc1-c1ccccc1 [Compound 4, 4-(2-methyl-6,7-dihydropyrazolo[1,5-a]pyrimidin-4(5H)-yl)-4-oxo-N-(4-phenylisoxazol-5-yl)butanamide], the IC50 was over 10 µM.
Cc1cc2n(n1)CCCN2CCCCNc1cc(-c2cccc(Cl)c2)no1 [Compound 131, 3-(3-chlorophenyl)-N-(4-(2-methyl-6,7-dihydropyrazolo[1,5-a]pyrimidin-4(5H)-yl)butyl)isoxazol-5-amine] showed an IC50 of over 10 µM.
Cc1cc2n(n1)CCCN2C(=O)CCC(=O)Nc1cc(-c2ccncc2)no1 [Compound 20, 4-{2-methyl-5H,6H,7H-pyrazolo[1,5-a]pyrimidin-4-yl}-4-oxo-N-[3-(pyridin-4-yl)-1,2-oxazol-5-yl]butanamide] was tested, and the IC50 was over 10 µM.
For Cc1cc2n(n1)CCCN2C(=O)CCC(=O)Nc1cc(-c2cccnc2)no1 [Compound 19, 4-(2-methyl-6,7-dihydropyrazolo[1,5-a]pyrimidin-4(5H)-yl)-4-oxo-N-(3-(pyridin-3-yl)isoxazol-5-yl)butanamide], the IC50 was over 10 µM.
Work on Cc1cc2n(n1)CCCN2C(=O)CCC(=O)Nc1cc(-c2ccc(Cl)cc2)no1 [Compound 5, N-(3-(4-chlorophenyl)isoxazol-5-yl)-4-(2-methyl-6,7-dihydropyrazolo[1,5-a]pyrimidin-4(5H)-yl)-4-oxobutanamide] yielded an IC50 of under 0.1 µM.
Cc1cccc(-c2cc(NC(=O)CCC(=O)N3CCCn4nc(C)cc43)on2)c1 [Compound 11, 4-{2-methyl-5H,6H,7H-pyrazolo[1,5-a]pyrimidin-4-yl}-N-[3-(3-methylphenyl)-1,2-oxazol-5-yl]-4-oxobutanamide] showed an IC50 of over 10 µM.
Cc1cc2n(n1)CCCN2C(=O)CCC(=O)Nc1ccc(-c2ccccc2)cc1 [Compound 33, N-([1,1′-biphenyl]-4-yl)-4-(2-methyl-6,7-dihydropyrazolo[1,5-a]pyrimidin-4(5H)-yl)-4-oxobutanamide] was tested, and the IC50 was under 0.1 µM.
For Cc1cc2n(n1)CCCN2C(=O)CCC(=O)Nc1ccc(-c2ccc(C(F)(F)F)cc2)cc1 [Compound 14, 4-(2-methyl-6,7-dihydropyrazolo[1,5-a]pyrimidin-4(5H)-yl)-4-oxo-N-(4′-(trifluoromethyl)-[1,1′-biphenyl]-4-yl)butanamide], the IC50 was over 10 µM.
For Cc1cc2n(n1)CCCN2C(=O)CCC(=O)Nc1ccc(-c2cncnc2)cc1 [Compound 39, 4-{2-methyl-5H,6H,7H-pyrazolo[1,5-a]pyrimidin-4-yl}-4-oxo-N-[4-(pyrimidin-5-yl)phenyl]butanamide], the IC50 was under 0.1 µM.
Cc1cc2n(n1)CCCN2C(=O)CC(C)C(=O)Nc1ccc(-c2cccnc2)nn1 (centres unmarked) [Compound 155] was tested, and the IC50 was under 0.1 µM.
In the case of Cc1cc2n(n1)CCCN2C(=O)CCC(=O)Nc1ccc(-c2ccc(N)cc2)cc1 [Compound 71, N-(4′-amino-[1,1′-biphenyl]-4-yl)-4-(2-methyl-6,7-dihydropyrazolo[1,5-a]pyrimidin-4(5H)-yl)-4-oxobutanamide], the IC50 is reported as under 0.1 µM.
Cc1cc2n(n1)CCCN2C(=O)CCC(=O)NC1CCN(c2ccccc2)CC1 [Compound 81, 4-(2-methyl-6,7-dihydropyrazolo[1,5-a]pyrimidin-4(5H)-yl)-4-oxo-N-(1-phenylpiperidin-4-yl)butanamide] showed an IC50 of over 10 µM.
For Cc1cc2n(n1)CCCN2C(=O)CCC(=O)Nc1cnc(-c2cncc(F)c2)cn1 [Compound 122, N-(5-(5-fluoropyridin-3-yl)pyrazin-2-yl)-4-(2-methyl-6,7-dihydropyrazolo[1,5-a]pyrimidin-4(5H)-yl)-4-oxobutanamide], the IC50 was under 0.1 µM.
With Cc1cc2n(n1)CCCN2C(=O)CCC(=O)Nc1ccc(-c2cncc(Cl)c2)nc1 [Compound 108, N-(5′-chloro-[2,3′-bipyridin]-5-yl)-4-(2-methyl-6,7-dihydropyrazolo[1,5-a]pyrimidin-4(5H)-yl)-4-oxobutanamide] the IC50 was under 0.1 µM.
Compound Cc1cccc(-c2ccc(NC(=O)CCC(=O)N3CCCn4nc(C)cc43)cc2)c1 [Compound 59, 4-(2-methyl-6,7-dihydropyrazolo[1,5-a]pyrimidin-4(5H)-yl)-N-(3′-methyl-[1,1′-biphenyl]-4-yl)-4-oxobutanamide] has an IC50 of under 0.1 µM.
Work on Cc1cc2n(n1)CCCN2C(=O)C(C)CC(=O)Nc1cc(-c2cccc(Cl)c2)no1 (centres unmarked) [Compound 132, N-(3-(3-chlorophenyl)isoxazol-5-yl)-3-methyl-4-(2-methyl-6,7-dihydropyrazolo[1,5-a]pyrimidin-4(5H)-yl)-4-oxobutanamide] yielded an IC50 of over 10 µM.
Work on Cc1cc2n(n1)CCCN2C(=O)CCC(=O)Nc1ccc(-c2ccc(F)cc2)cn1 [Compound 90, N-(5-(4-fluorophenyl)pyridin-2-yl)-4-(2-methyl-6,7-dihydropyrazolo[1,5-a]pyrimidin-4(5H)-yl)-4-oxobutanamide] yielded an IC50 of under 0.1 µM.
Work on Cc1cnc(-c2ccc(NC(=O)CCC(=O)N3CCCn4nc(C)cc43)nc2)cn1 [Compound 149, 4-(2-methyl-6,7-dihydropyrazolo[1,5-a]pyrimidin-4(5H)-yl)-N-(5-(5-methylpyrazin-2-yl)pyridin-2-yl)-4-oxobutanamide] yielded an IC50 of under 0.1 µM.
Compound Cc1cc2n(n1)CCCN2C(=O)CCC(=O)Nc1ccc(-c2cccc(Cl)c2)nc1 [Compound 83, N-(6-(3-chlorophenyl)pyridin-3-yl)-4-(2-methyl-6,7-dihydropyrazolo[1,5-a]pyrimidin-4(5H)-yl)-4-oxobutanamide] has an IC50 of under 0.1 µM.
Compound Cc1cc2n(n1)CCCN2C(=O)CCC(=O)Nc1cc(-c2ccc(Cl)cn2)no1 [Compound 17, N-(3-(5-chloropyridin-2-yl)isoxazol-5-yl)-4-(2-methyl-6,7-dihydropyrazolo[1,5-a]pyrimidin-4(5H)-yl)-4-oxobutanamide] has an IC50 of over 10 µM.
Work on Cc1cc2n(n1)CCCN2C(=O)CCC(=O)N(C)c1cc(-c2cccc(Cl)c2)no1 [Compound 130, N-(3-(3-chlorophenyl)isoxazol-5-yl)-N-methyl-4-(2-methyl-6,7-dihydropyrazolo[1,5-a]pyrimidin-4(5H)-yl)-4-oxobutanamide] yielded an IC50 of over 10 µM.
Cc1cc2n(n1)CCCN2C(=O)CCC(=O)Nc1ccc(-c2cncc(Cl)c2)cn1 [Compound 114, N-(5′-chloro-[3,3′-bipyridin]-6-yl)-4-(2-methyl-6,7-dihydropyrazolo[1,5-a]pyrimidin-4(5H)-yl)-4-oxobutanamide] showed an IC50 of under 0.1 µM.
Cc1cncc(-c2ccc(NC(=O)CCC(=O)N3CCCn4nc(C)cc43)cn2)c1 [Compound 110, N-(5′-methyl-2,3′-bipyridin-5-yl)-4-(2-methyl-6,7-dihydropyrazolo[1,5-a]pyrimidin-4(5H)-yl)-4-oxobutanamide] showed an IC50 of under 0.1 µM.
Cc1cc2n(n1)CCCN2C(=O)CCC(=O)Nc1ccc(-c2cncc(Cl)c2)nn1 [Compound 102, N-(6-(5-chloropyridin-3-yl)pyridazin-3-yl)-4-(2-methyl-6,7-dihydropyrazolo[1,5-a]pyrimidin-4(5H)-yl)-4-oxobutanamide] was tested, and the IC50 was under 0.1 µM.

The compounds below were run on MMTV-Wnt1 tumor (assay: MMTV-Wnt1 mouse model). Settings: treated mice, FIG. 2 and FIG. 3.
Assay type: in vivo
Method: 8-10 weeks old Female BALBc mice were anesthetised with 150 mg/kg Ketamine+75 mg/kg Xylazine. Under aseptic conditions, skin near the 4th mammary fat pad was incised. Mammary fat pad was tweaked with forceps and tumor fragment ˜2 mm^3 was implanted. The incision was closed using a tissue adhesive. Animals were randomised into groups of eight and treated daily with the test compounds for 14 days. Tumors were measured in two dimensions using calipers, and volume was calculated using the formula: Tumor Volume (mm^3)=[…]. Maximum tumor volume limit was 2000 mm^3.
Cc1cncc(-c2ccc(NC(=O)CCC(=O)N3CCCn4nc(C)cc43)cn2)c1 [Compound 110, N-(5′-methyl-2,3′-bipyridin-5-yl)-4-(2-methyl-6,7-dihydropyrazolo[1,5-a]pyrimidin-4(5H)-yl)-4-oxobutanamide] was tested, and the tumor growth was “decreased tumor growth in all the treated mice”.

What follows are compounds tested on mammalian PORCN (assay: PORCN-null HT1080 cells transfected with mammalian PORCN, WNT3A, STF reporter). Settings: luciferase, FIG. 1.
Assay type: cell-based
Method: PORCN-null HT1080 cells were transfected with mammalian or Xenopus PORCN expression plasmids, along with WNT3A, STF reporter and mCherry as transfection control. 6 hours after transfection, cells were treated with the compounds or DMSO as indicated, and the following day assayed for luciferase. Xenopus PORCN was resistant to the inhibitory effects of compounds.
For Cc1cncc(-c2ccc(NC(=O)CCC(=O)N3CCCn4nc(C)cc43)cn2)c1 [Compound 110, N-(5′-methyl-2,3′-bipyridin-5-yl)-4-(2-methyl-6,7-dihydropyrazolo[1,5-a]pyrimidin-4(5H)-yl)-4-oxobutanamide], the “inhibition of the activity of mammalian porcupine” value was “inhibit the activity of mammalian porcupine”.
